In the supplement of paper PMC10307832:

How the values were obtained:
[1] = compound: C1=CC2=NC=CN=C2C=C1/C=C/3\C(=O)NC(=O)S3; test: relative viability (nuclei count vs DMSO), 5 days (fraction); higher = more cells survive
Method in brief: (§1)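 Nuclei counted with MetaXpress define viability as the ratio of treated to vehicle wells, given as a median across plates. The lung cancer cell lines were in 1536-well plates, pinned with five √10-spaced library-drug doses and imaged at 4× after 5 days and Hoechst staining. Plates passed with control CV below 25% and at least one doubling.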

BGJ398 = compound: CCN1CCN(c2ccc(Nc3cc(N(C)C(=O)Nc4c(Cl)c(OC)cc(OC)c4Cl)ncn3)cc2)CC1 [BGJ398]; test: as above
Method in brief: as §1

Cell Line | relative viability ([1]; 0.02 µM) | relative viability ([1]; 0.06325 µM) | relative viability ([1]; 0.2 µM) | relative viability ([1]; 0.6325 µM) | relative viability ([1]; 2 µM) | relative viability (BGJ398; 0.01 µM) | relative viability (BGJ398; 0.03162 µM) | relative viability (BGJ398; 0.1 µM) | relative viability (BGJ398; 0.3162 µM) | relative viability (BGJ398; 1 µM)
201T | 0.823 | 1.05 | 1.03 | 0.954 | 0.818 | 1.18 | 0.93 | 0.96 | 0.95 | 0.845
A549 | 0.98 | 0.999 | 1.05 | 0.902 | 0.697 | 0.932 | 0.917 | 1.03 | 0.876 | 0.996
A-427 | 0.963 | 1.14 | 1.08 | 0.918 | 0.975 | 0.985 | 0.979 | 0.967 | 0.815 | 0.753
ABC-1 | 0.977 | 0.987 | 0.893 | 0.931 | 0.526 | 0.891 | 0.988 | 0.902 | 0.816 | 0.927
BEN | 0.922 | 0.922 | 1.03 | 0.961 | 0.839 | 0.891 | 0.964 | 0.947 | 0.845 | 0.809
CAL-12T | 0.962 | 0.953 | 1.08 | 0.971 | 0.951 | 0.947 | 1.02 | 0.935 | 0.929 | 0.942
COR-L23 | 0.967 | 1.15 | 1.02 | 0.938 | 0.976 | 0.96 | 1.06 | 1.12 | 1.02 | 1.09
COR-L 105 | 0.904 | 1.05 | 1.01 | 0.912 | 0.741 | 0.875 | 0.744 | 0.961 | 0.83 | 0.875
Calu-6 | 0.971 | 1.04 | 1.03 | 0.989 | 1 | 0.986 | 0.988 | 1.05 | 1.02 | 1.02
ChaGo-K-1 | 0.972 | 0.991 | 1.09 | 0.919 | 0.891 | 1.06 | 0.987 | 1.03 | 1.03 | 1.02
EBC-1 | 0.913 | 1.04 | 0.957 | 1.05 | 1.01 | 0.975 | 0.981 | 1.09 | 1.03 | 1.14
EKVX | 0.927 | 0.885 | 0.987 | 0.936 | 0.786 | 0.865 | 0.942 | 1.08 | 0.871 | 0.986
EMC-BAC-2 | 0.951 | 1.1 | 1.1 | 0.944 | 0.554 | 1.17 | 1.15 | 0.964 | 0.945 | 0.942
EPLC-272H | 0.939 | 0.902 | 0.98 | 0.799 | 0.733 | 0.898 | 0.899 | 0.911 | 0.785 | 0.778
H3255 | 0.984 | 1.02 | 1.01 | 0.934 | 0.946 | 0.945 |  | 1 | 0.843 | 0.999
HARA | 0.84 | 0.992 | 0.945 | 0.778 | 0.955 | 1.02 | 0.788 | 0.821 | 0.719 | 0.602
HCC-15 | 1 | 0.921 | 0.972 | 0.921 | 0.818 | 1.01 | 1.01 | 1.07 | 1.13 | 0.887
HCC-44 | 0.895 | 1.03 | 0.991 | 0.965 | 0.745 | 0.998 | 0.986 | 0.987 | 0.993 | 0.826
HCC-78 | 0.9 | 0.845 | 1.04 | 0.979 | 0.507 | 0.881 | 0.911 | 0.933 | 1.02 | 0.86
HCC-366 | 0.979 | 0.787 | 1.01 | 0.942 | 0.985 | 1.01 | 1.01 | 1.07 | 1.08 | 0.974
HCC-827 | 0.989 | 0.984 | 1.02 | 1.04 | 1.05 | 0.932 |  | 1.01 | 0.962 | 1.04
HOP-62 | 0.929 | 0.945 | 1.06 | 1 | 0.943 | 0.983 | 1.07 | 1.07 | 0.982 | 1.02
IA-LM | 0.943 | 1.09 | 0.926 | 0.997 | 0.99 | 0.918 | 1.05 | 0.974 | 0.875 | 0.901
LC-2-ad | 0.973 | 0.987 | 1.11 | 0.917 | 0.758 | 0.977 | 1.03 | 0.977 | 0.994 | 0.906
LCLC-97TM1 | 0.822 | 1.02 | 1.03 | 0.906 | 0.214 | 0.778 | 1.09 | 1.02 | 0.962 | 0.97
LCLC-103H | 0.957 | 1.05 | 0.969 | 0.918 | 0.852 | 0.984 | 0.903 | 1.06 | 0.792 | 0.79

Cell Line | relative viability ([1]; 0.02 µM) | relative viability ([1]; 0.06325 µM) | relative viability ([1]; 0.2 µM) | relative viability ([1]; 0.6325 µM) | relative viability ([1]; 2 µM) | relative viability (BGJ398; 0.01 µM) | relative viability (BGJ398; 0.03162 µM) | relative viability (BGJ398; 0.1 µM) | relative viability (BGJ398; 0.3162 µM) | relative viability (BGJ398; 1 µM)
LK-2 | 1.02 | 1.06 | 1.14 | 0.896 | 0.566 | 0.867 | 0.776 | 0.638 | 0.399 | 0.263
LOU-NH91 | 0.997 | 0.988 | 1.01 | 0.978 | 0.805 | 0.935 | 0.883 | 0.971 | 0.771 | 0.931
LU99A | 1.07 | 1.11 | 0.979 | 0.871 | 0.518 | 0.884 | 0.95 | 0.89 | 0.908 | 0.792
LXF-289 | 0.996 | 0.95 | 0.956 | 0.97 | 1.01 | 0.949 | 0.948 | 0.944 | 0.875 | 0.942
NCI-H23 | 1.01 | 1.21 | 1.1 | 0.876 | 0.753 | 0.994 | 0.974 | 0.966 | 0.937 | 0.979
NCI-H322M | 0.935 | 0.969 | 0.995 | 0.916 | 0.739 | 1.07 | 0.754 | 0.948 | 0.815 | 1.02
NCI-H358 | 1.08 | 0.959 | 0.955 | 0.887 | 0.425 | 0.843 | 0.942 | 1.1 | 0.882 | 1.3
NCI-H441 | 0.863 | 0.875 | 0.885 | 1.2 | 0.736 | 0.807 | 0.977 | 1.16 | 1.05 | 1.01
NCI-H460 | 0.933 | 0.964 | 0.999 | 0.939 | 0.942 | 1.02 | 1.04 | 1.11 | 0.984 | 0.988
NCI-H520 | 1.03 | 1.14 | 1.06 | 0.855 | 0.927 | 0.954 | 0.954 | 0.758 | 0.312 | 0.4
NCI-H522 | 0.934 | 1.13 | 1 | 0.75 | 0.751 | 0.918 | 0.89 | 1.04 | 0.82 | 0.874
NCI-H596 | 1.06 | 0.938 | 1.1 | 0.834 | 0.867 | 1.13 | 0.931 | 0.978 | 0.92 | 0.8
NCI-H647 | 0.959 | 1.13 | 1.08 | 0.84 | 0.938 | 0.869 | 1.07 | 1.03 | 0.867 | 0.799
NCI-H650 | 0.951 | 1.04 | 1.07 | 0.914 | 0.529 | 0.883 | 1.21 | 1.02 | 1.03 | 0.665
NCI-H661 | 1.01 | 1.04 | 1.02 | 0.972 | 1.07 | 0.977 | 0.997 | 0.983 | 0.987 | 0.914
NCI-H727 | 0.931 | 0.856 | 1.13 | 0.888 | 0.558 | 0.868 | 0.879 | 0.917 | 0.957 | 0.917
NCI-H838 | 0.96 | 0.957 | 1.02 | 0.821 | 0.776 | 0.845 | 0.938 | 0.984 | 0.8 | 0.742
NCI-H1299 | 0.996 | 1.04 | 1.02 | 1 | 1.01 | 0.99 | 1.05 | 1 | 0.993 | 1.02
NCI-H1355 | 0.821 | 0.984 | 1.05 | 0.923 | 0.875 | 0.943 | 0.961 | 1.02 | 0.971 | 0.795
NCI-H1395 | 1.05 | 0.985 | 1.06 | 0.884 | 0.899 | 0.853 | 0.946 | 0.847 | 0.589 | 0.483
NCI-H1437 | 1.01 | 0.983 | 1.04 | 0.964 | 0.703 | 0.978 | 1.01 | 1 | 1 | 0.832
NCI-H1563 | 1.06 | 0.93 | 1.11 | 0.822 | 1.12 | 0.992 | 0.993 | 0.936 | 0.831 | 0.701
NCI-H1623 | 0.936 | 0.806 | 0.909 | 0.957 | 0.786 | 1.08 | 0.805 | 1.05 | 0.908 | 1.03
NCI-H1648 | 0.925 | 0.605 | 1.11 | 0.701 | 1 | 0.882 | 0.809 | 0.73 | 0.775 | 0.889
NCI-H1650 | 0.953 | 0.952 | 0.974 | 1 | 0.975 | 0.874 | 0.747 | 0.909 | 0.487 | 0.692
NCI-H1651 | 0.959 | 0.876 | 0.994 | 0.877 | 0.884 | 0.921 | 0.96 | 1.08 | 0.936 | 0.87
